Results on 30 molecules are retold here after EP0099121A2, “Pharmaceutical compositions” (Bristol-Myers Company, priority 1982, dated 1984).

The test system of the assay is Gastric Acid Output. In words: Gastric antisecretory activity in the Gastric Fistula Rat (Table 2 title: Two-Hour Pylorus Ligated Rat). The class given is in vivo, Long Evans rats. As to conditions: Rattus norvegicus, sc; Route of Administration s.c.; numbers in parentheses are the 95% confidence limits; read-out: ED50. The protocol: Male Long Evans rats weighing about 240-260 grams at the time of cannula implantation are used. The design and implantation of the stainless steel cannula into the anterior wall of the fore-stomach are carried out essentially as described by Pare et al. [Laboratory Animal Science, 27, 244 (1977)]. The fistula components are designed and the operative procedure is carried out exactly as described in the above reference. Post operatively the animals are individually housed in solid bottom cages with sawdust and are allowed food and water ad libitum throughout the entire recovery period. Animals are not used for test purposes for at least 15 days after the operative procedure.
The animals are fasted but allowed water ad libitum for 20 hours before the testing procedure is to begin. Immediately prior to collection, the cannula is opened and the stomach washed gently with 30-40 mL of warm saline or distilled water to remove any residual contents. The catheter is then screwed into the cannula in place of the plugging screw and the rat is placed in a clear plastic rectangular cage measuring 40 cm long, 15 cm wide and 13 cm high. The bottom of the cage has a slit approximately 1.5 cm wide and 25 cm long running down the center to accommodate the catheter which hangs through it. In this way the rat is not restricted and can move freely about the cage during collection periods. The remainder of the assay is carried out as described by Ridley et al. [Research Comm. Chem. Path. Pharm., 17, 365 (1977)].
Gastric secretions collected during the first hour after washing the stomach are discarded as they may be contaminated. For oral evaluation, the catheter is then removed from the cannula and replaced with the plugging screw. Water (2 mL/kg) is administered orally via gastric intubation and the animal is returned to the cage for 45 minutes. After this time the plugging screw is removed and replaced with a catheter to which a small plastic vial has been attached to collect the gastric secretions. A two hour sample is collected (this represents the control secretion), the catheter removed and replaced with the plugging screw. The test drug is now administered orally in a volume of 2 mL/kg via gastric intubation. Forty-five minutes later the plugging screw is again removed, replaced with the catheter attached to a small plastic vial and another 2 hour sample is collected. The secretions in the second sample are compared to those of the control sample in order to determine the effects of the test drug.
When test compounds are to be evaluated parenterally, the animal is injected ip or sc with the test compound vehicle in a volume of 2 mL/kg immediately after discarding the initial 60 minute collection. A two hour sample is collected (control secretion) and the animals are injected either ip or sc with the test compound in a volume of 2 mL/kg. An additional two hour sample is collected and its secretions are compared to those of the control period to determing drug effects.
The samples are centrifuged in a graduated tube for volume determination. Titratable acidity is measured by titrating a one mL sample to pH 7.0 with 0.02N NaOH, using an Autoburet and an electrometric pH meter (Radiometer). Titratable acid output is calculated in microequivalents by multiplying the volume in milliliters by the acid concentration in milliequivalents per liter.
Results are expressed as percent inhibition relative to control readings. Dose response curves are constructed and ED values are calculated by regression analyses. At least three rats are used at each dosage level and a minimum of three dosage levels are utilized for determination of a dose response curve.
What is called ED50 is the dose that gives a 50% effect, or the effect in half of the subjects. `CNC1=NS(=O)(=O)N=C1NCCSCc1cnc(NC(=N)N)s1` [Example 95, 3-{2-[(2-Guanidinothiazol-5-yl)methylthio]ethylamino}-4-methylamino-1,2,5-thiadiazole 1,1-dioxide]: the ED50 was ~15 µmol/kg.
As for `NC(N)=Nc1ncc(CSCCNc2n[s+]([O-])nc2N)s1` (stereo not drawn) [Example 96, 3-Psnino-4-{2-[(2-guanidinothiazol-5-yl)methylthio]-ethylamino}-1,2,5-thiadiazole 1-oxide], the figure is ~15 µmol/kg; as for `CN(C)Cc1ccc(CSCCNC2=NS(=O)(=O)N=C2NC2CC2)o1` [Example 97, 3-Cyclopropylamino-4-{2-[(5-dimethylaminomethyl-2-furyl)-methylthio]ethylamino}-1,2,5-thiadiazole 1,1-dioxide], ~3 µmol/kg; as for `CN(C)Cc1ccc(CSCCNC2=NS(=O)(=O)N=C2NCC2CC2)o1` [Example 98, 3-Cyclopropylmethylamino-4-{2-[ (5-dimethylaminomethyl-2-furyl)methylthio]ethylamino}-1,2,5-thiadiazole 1,1-dioxide], 0.52 µmol/kg.
As for `CN(C)Cc1ccc(CSCCNC2=NS(=O)(=O)N=C2N2CCOCC2)o1` [Example 99, 3-{2-[(5-Dimethylaminomethyl-2-furyl)methylthio]ethylamino}-4-morpholino-1,2,5-thiadiazole 1,1-dioxide], the figure is 32 µmol/kg; as for `COCCNC1=NS(=O)(=O)N=C1NCCSCc1ccc(CN(C)C)o1` [Example 100, 3-{2-[(5-Dimethylaminomethyl-2-furyl)methylthio]ethylamino}-4-(2-methoxyethylamino)-1,2,5-thiadiazole 1,1-dioxide], 1.6 µmol/kg; as for `CN(C)Cc1ccc(CSCCNC2=NS(=O)(=O)N=C2N2CCCC2)o1` [Example 101, 3-{2-[(5-Dimethylaminomethyl-2-furyl)methylthio]ethylamino}-4-pyrrolidino-1,2,5-thiadiazole 1,1-dioxide], 68 µmol/kg.
Regarding `CCCCNC1=NS(=O)(=O)N=C1NCCSCc1ccc(CN(C)C)o1` [Example 103, 3-Butylamino-4-(2-[(5-dimethylaminomethyl-2-furyl)methylthio]-ethylamino}-1,2,5-thiadiazole 1,1-dioxide], the ED50 amounted to 0.54 µmol/kg.
As for `CN(C)Cc1ccc(CSCCNC2=NS(=O)(=O)N=C2NCc2ccccn2)o1` [Example 104, 3-{2-[(5-Dimethylaminomethyl-2-furyl)methylthio]ethylamino}-4-[(2-pyridyl)methylamino]-1,2,5-thiadiazole 1,1-dioxide], the figure is 0.61 µmol/kg; as for `CN(C)Cc1ccc(CSCCNC2=NS(=O)(=O)N=C2NO)o1` [Example 105, 3-{2-[(5-Dimethylaminomethyl-2-furyl)methylthio]ethy1arnino}-4-hydroxylamino-1,2,5-thiadiazole 1,1-dioxide], 1.65 µmol/kg.
As for `CONC1=NS(=O)(=O)N=C1NCCSCc1ccc(CN(C)C)o1` [Example 107, 3-{2-[(5-Dimethylaminomethyl-2-furyl)methylthio]ethylamino}-4-methoxyamino-1,2,5-thiadiazole 1,1-dioxide], the figure is 23 µmol/kg; as for `CCCNC1=NS(=O)(=O)N=C1NCCSCc1ccc(CN(C)C)s1` [Example 108, 3-{2-[(5-Dimethylaminomethyl-2-thienyl)methylthio]ethylamino}-4-propylamino-1,2,5-thiadiazole 1,1-dioxide], 2.2 µmol/kg.
The same measure for `CN(C)Cc1ccc(CSCCNc2n[s+]([O-])nc2N)s1` (stereo not drawn) [Example 109, 3-Amino-4-{2-[(5-dimethylaminomethyl-2-thienyl)methylthio]-ethylamino}-1,2,5-thiadiazole 1-oxide]: 1.4 µmol/kg; for `CN(C)Cc1ccc(CSCCNC2=NS(=O)(=O)N=C2NCc2cccnc2)s1` [Example 110, 3-{2-[(5-Dimethylaminomethyl-2-thienyl)methylthio]ethylamino}-4-[(3-pyridyl)methylamino]-1,2,5-thiadiazole 1,1-dioxide]: 0.05 µmol/kg; for `CN(C)Cc1ccc(CSCCNC2=NS(=O)(=O)N=C2N)s1` [Example 111, 3-Amino-4-{2-[(5-dimethylaminomethyl-2-thienyl)methylthio]-ethylamino}-1,2,5-thiadiazole 1,1-dioxide]: 0.64 µmol/kg.
For the molecule `CN(C)Cc1ccc(CSCCNC2=NS(=O)(=O)N=C2NCc2ccccc2)s1` [Example 112, 3-Benzylamino-4-(2-[(5-dimethylaminomethyl-2-thienyl)-methylthio]ethylamino}-1,2,5-thiadiazole 1,1-dioxide], the ED50 was found to be 1.2 µmol/kg.
The same measure for `CNC1=NS(=O)(=O)N=C1NCCCOc1cccc(CN(C)C)c1` [Example 113, 3-[3-(3-Dimethylaminomethylphenoxy)propylamino]-4-methylamino-1,2,5-thiadiazole 1,1-dioxide]: 0.07 µmol/kg.
Regarding `CNC1=NS(=O)(=O)N=C1NCCSCc1cnc(CN(C)C)s1` [Example 114, 3-{2-[(2-Dimethylaminomethylthiazol-5-yl)methylthio]-ethylamino}-4-methylamino-1,2,5-thiadiazole 1,1-dioxide], the ED50 is ~15 µmol/kg.
Consider `CNc1n[s+]([O-])nc1NCCSCc1csc(NC(=N)N)n1` (stereo not drawn) [Example 115, 3-{2-[(2-Guanidinothiazol-4-yl)methylthio]ethylamino}-4-methylamino-1,2,5-thiadiazole 1-oxide], for which the ED50 was determined as 0.57 µmol/kg.
The same measure for `NC(N)=Nc1nc(CSCCNc2n[s+]([O-])nc2O)cs1` (stereo not drawn) [Example 116, 3-{2-[(2-Guanidinothiazol-4-yl)methylthylthio]ethylamino}-4-hydroxy-1,2,5-thiadiazole 1-oxide]: > 10 µmol/kg; for `CN=C(N)Nc1nc(CSCCNc2n[s+]([O-])nc2N)cs1` (stereo not drawn) [Example 117, 3-Amino-4-{2-[(2-{2-methylguanidino}thiazol-4-yl)methylthio]-ethylamino}-1,2,5-thiadiazole 1-oxide]: ~0.5 µmol/kg; for `CNc1nc(CSCCNc2n[s+]([O-])nc2N)cs1` (stereo not drawn) [Example 119]: > 10 µmol/kg.
As for `CN=C(NC)Nc1nc(CSCCNc2n[s+]([O-])nc2N)cs1` (stereo not drawn) [Example 120, 3-Amino-4-{2-[(2-{2,3-dimethylguanidino}thiazol-4-yl)-methylthio]ethylamino}-1,2,5-thiadiazole I-oxide], the figure is ~5 µmol/kg.
With `N=C(N)Nc1nc(CSCCNc2n[s+]([O-])nc2NCCSCc2csc(NC(=N)N)n2)cs1` (stereo not drawn) [Example 121, 3,4-Bis-{2-[(2-guanidinothiazol-4-yl)methylthio]ethylamino}-1,2,5-thiadiazole 1-oxide], the ED50 stood at 0.19 µmol/kg.
The same measure for `CNC1=NS(=O)(=O)N=C1NCCSCc1csc(N)n1` [Example 122, 3-{2-[(2-Aminothiazol-4-yl)methylthio]ethylamino}-4-methylamino-1,2,5-thiadiazole 1,1-dioxide]: ~10 µmol/kg.
As for `CN(C)Cc1ncc(CSCCNc2n[s+]([O-])nc2N)s1` (stereo not drawn) [Example 123, 3-Amino-4-{2-[(2-dimethylaminomethylthiazol-5-yl)methylthio]-ethylamino}-1,2,5-thiadiazole 1-oxide], the figure is > 10 µmol/kg.
The same measure for `Nc1nc(CSCCNc2n[s+]([O-])nc2N)cs1` (stereo not drawn) [Example 124, 3-Amino-4-{2-[(2-aminothiazol-4-yl)methylthio]ethylamino}-1,2,5-thiadiazole 1-oxide]: > 10 µmol/kg; for `CN=C(NC)Nc1nc(CSCCNC2=NS(=O)(=O)N=C2NC)cs1` [Example 125, 3-Methylamino-4-{2-[(2-{2,3-dimethylguanidino)thiazol-4-yl)-methylthio]ethylamino}-1,2,5-thiadiazole 1,1-dioxide]: ~10 µmol/kg.
In the case of `CNC1=NS(=O)(=O)N=C1NCCSCc1csc(N(C)C)n1` [Example 127, 3-{2-[(2-Dimethylaminothiazol-4-yl)methylthio]ethylamino}-4-methylamino-1,2,5-thiadiazole 1,1-dioxide], the median effective dose (ED50) was > 10 µmol/kg.
As for `CNC1=NS(=O)(=O)N=C1NCCSCc1csc(N=C2NCCN2)n1` [Example 128, 3-{2-[(2-{2-Imidazolidinyl}iminothiazol-4-yl)methylthio]-ethylamino}-4-methy1amino-1,2,5-thiadiazole 1,1-dioxide], the figure is ~10 µmol/kg.
